{"source": "patent US20130012473A1", "about": "“COMBINED USE OF PHOSPHOLIPID AND SULFATE GROUPS-CARRYING POLYSACCHARIDES FOR INHIBITING METASTATIC SPREAD” (KTB TUMORFORSCHUNGSGESELLSCHAFT MBH, priority 2010, published 2013)", "system": "B16.F10 melanoma cells", "experiment": "Removal of exogenous LysoPC from the medium (PC/LysoPC and free choline assays)", "assay_type": "cell-based, mouse", "conditions": "in absence of the cells", "excerpt": "Cell culture and LysoPC feeding: Mouse melanoma cell line B16.F10 (ATCC, CRL-6475) was passaged in vitro in DMEM as described before (Fritzsche, J. et al., Thromb. Haemost. 100:1166-1175 (2008)). Cells were routinely (monthly) tested to be negative of mycoplasms, their morphological appearance observed by microscopic means and examined for the expression of adhesion receptors and ligands by flow cytometry. LysoPC removal (1-Heptadecanoyl-2-hydroxy-sn-glycero-3-phosphocholine, (C17:0; HEP-LysoPC), Avanti Polar Lipids, Inc., or 1-Hexadecanoyl-sn-glycero-3-phosphocholine, (C16:0; HEX-LysoPC), Sigma, Taufkirchen, Germany was determined using 1×10^5 cells in 24-well tissue culture plates (Greiner BioOne, Frickenhausen, Germany). Non-cytotoxic LysoPC/BSA DMEM-solutions (FIG. 7 A) were prepared by adding 20-40 mg/ml bovine serum albumine (BSA, PAA Laboratories GmbH, Cölbe, Germany). Cell culture supernatants were collected from triplicates of LysoPC treated and untreated control wells. Cells were removed from tissue culture plates using trypsin/EDTA. […]\nDetermination of LysoPC concentration: LysoPC concentration was determined by an enzymatic PL (PC/LysoPC) assay containing phospholipase D and choline oxidase (mti diagnostics GmbH, Idstein, Germany). […]\nB, C and D) Colorimetric assays for the quantification of LysoPC removal from the supernatant of B16.F10. […]"}
{"smiles": "CCCCCCCCCCCCCCCCC(=O)OC[C@@H](O)COP(=O)([O-])OCC[N+](C)(C)C", "note": "[LysoPC]", "values": [{"measurement": "LysoPC concentration in culture medium", "result": "not changed in absence of the cells"}]}
